Reference: patent US20240174680A1, “CDK2 INHIBITORS AND METHODS OF USING THE SAME” (Cedilla Therapeutics, Inc., priority 2021, published 2024)

Biological target: CDK2/Cyclin E1 (Homo sapiens, UniProt P24941)
Experiment: CDK2/Cyclin E1 Caliper LabChip EZ Reader mobility shift assay
Assay type: biochemical
Set-up: purchased Eurofins 14-475
Settings: read-out: Caliper Assay (CDK2/CCNE1): IC50
Method in brief: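 Mobility-shift kinase assay: compound titrations preincubated 30 min with enzyme and ATP, reaction started with 5-FAM-QSPKKG-CONH2 peptide. Final 2.5 nM CDK2/Cyclin E1, 100 μM ATP, 1.5 μM peptide, HEPES pH 7.5; stopped with EDTA after 100 min. IC50 from four-parameter fit of normalized conversion ratio.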

| SMILES | IC50 |
| --- | --- |
| C[C@@H](OCc1ccccc1)[C@H](NC(=O)C1CN(C(=O)c2cnn(Cc3ccccc3)c2)CC12CN(C(=O)[C@H]1CC1(C)C)C2)C(=O)NCC#CCO (some centres unmarked) [I-20] | 10 to 100 nM |
| COC[C@H]1CCCN(C(=O)[C@@H](NC(=O)[C@@H]2CN(C(=O)c3cncs3)CC23CN(C(=O)[C@H]2CC2(C)C)C3)[C@@H](C)OC[C@H]2CC[C@@H](OC)CC2)C1 [I-408] | 10 to 100 nM |
| CNC(=O)[C@@H](NC(=O)[C@@H]1CN(Cc2cncs2)CC12CN(C(=O)[C@H]1CC1(C)C)C2)[C@@H](C)OCc1ccccc1 [I-51A] | > 10000 nM |
| C[C@@H](OCC1CCCCC1)[C@H](NC(=O)[C@@H]1CN(C(=O)c2cnn(Cc3ccccc3)c2)CC12CN(C(=O)[C@H]1CC1(C)C)C2)C(=O)N1CC[C@@H]1CN [I-270] | 10 to 100 nM |
| CNC(=O)[C@@H](NC(=O)[C@H]1CN(C(=O)C2CCOCC2)CC12CN(C(=O)[C@H]1CC1(C)C)C2)[C@@H](C)OCc1ccccc1 [I-38B] | > 10000 nM |
| CNC(=O)[C@@H](NC(=O)C1(F)CN(C(=O)c2cnn(Cc3ccccc3)c2)CC12CN(C(=O)[C@H]1CC1(C)C)C2)[C@@H](C)OCC1CCCCC1 (some centres unmarked) [I-501] | 10 to 100 nM |
| C[C@@H](OCC1CCC(F)(F)CC1)[C@H](NC(=O)[C@@H]1CN(C(=O)c2cn[nH]c2)CC12CN(C(=O)C1(C(F)(F)F)CC1)C2)C(=O)N1CCOCC1 [I-302] | 10 to 100 nM |
| CNC(=O)[C@H](CCCC1CCCCC1)NC(=O)[C@@H]1CN(C(=O)c2cnn(Cc3ccccc3)c2)CC12CN(C(=O)[C@H]1CC1(C)C)C2 [I-155A] | 100 to 1000 nM |
| CNC(=O)[C@@H](NC(=O)[C@@H]1CN(C(=O)c2cncs2)CC12CN(C(=O)[C@H]1CC1(C)C)C2)[C@@H](C)OCC1CC2CCC1C2 (some centres unmarked) [I-465] | ≤ 10 nM |
| C[C@@H](OCC1CCC(F)(F)CC1)[C@@H](COC1CCC(F)(F)CC1)NC(=O)[C@@H]1CN(C(=O)c2cncs2)CC12CN(C(=O)[C@H]1CC1(C)C)C2 [I-315] | ≤ 10 nM |
| COc1ccc(CNC(=O)[C@@H]2CN(C(=O)c3cnn(Cc4ccccc4)c3)CC23CN(C(=O)[C@H]2CC2(C)C)C3)nn1 [I-371] | > 10000 nM |
| C[C@@H](OCC1CCCCC1)[C@H](NC(=O)[C@@H]1CN(C(=O)c2cnn(Cc3ccccc3)c2)CC12CN(C(=O)[C@H]1CC1(C)C)C2)C(=O)NCC1(C(=O)O)CC1 [I-474] | ≤ 10 nM |
| COC[C@H]1CCCN(C(=O)[C@@H](NC(=O)[C@@H]2CN(C(=O)c3cncs3)CC23CN(C(=O)[C@H]2CC2(C)C)C3)[C@@H](C)OC[C@H]2CC[C@H](N)CC2)C1 [I-433] | 1000 to 10000 nM |
| CNC(=O)[C@@H](NC(=O)[C@H]1CN(C(=O)c2sc(Cl)nc2Cl)CC12CN(C(=O)[C@H]1CC1(C)C)C2)[C@@H](C)OCC1CCCCC1 [I-232B] | 1000 to 10000 nM |
| C[C@@H](NC(=O)[C@@H]1CN(C(=O)c2cnn(Cc3ccccc3)c2)CC12CN(C(=O)[C@H]1CC1(C)C)C2)c1cccc(F)c1 [I-128A] | > 10000 nM |
| CNC(=O)[C@@H](NC(=O)[C@@H]1CN(C(=O)c2cnn(CC3CCN(C)CC3)c2)CC12CN(C(=O)[C@H]1CC1(C)C)C2)[C@@H](C)OCc1ccccc1 [I-23A] | 1000 to 10000 nM |
| CNC(=O)[C@@H](NC(=O)[C@@H]1CN(C(=O)c2cnc(Cl)s2)CC12CN(C(=O)[C@H]1CC1(C)C)C2)[C@@H](C)OCC1CCCCC1 [I-189A] | 100 to 1000 nM |
| C[C@@H](OCC1CCCCC1)[C@H](NC(=O)[C@@H]1CN(C(=O)c2cnn(Cc3ccccc3)c2)CC12CN(C(=O)[C@H]1CC1(C)C)C2)C(=O)N1CCC(F)(F)CC1 [I-149A] | ≤ 10 nM |
| CNC(=O)[C@@H](NC(=O)[C@H]1CN(C(=O)c2cnn(Cc3ccccc3)c2)CC12CN(C(=O)C(C)(C)C#N)C2)[C@@H](C)OCc1ccccc1 [I-76B] | > 10000 nM |
| C[C@@H](OCC12CCC(CC1)OC2)[C@H](NC(=O)[C@@H]1CN(C(=O)c2cncs2)CC12CN(C(=O)C(C)(C)C1CC1)C2)C(C)(C)O [I-334] | 100 to 1000 nM |
| C[C@@H]1C[C@H](C)CN(C(=O)[C@@H](NC(=O)C2CN(C(=O)c3cn[nH]c3)CC23CN(C(=O)[C@H]2CC2(C)C)C3)[C@@H](C)OCc2ccccc2)C1 (some centres unmarked) [I-124] | 100 to 1000 nM |
| CNC(=O)[C@@H](NC(=O)[C@@H]1CN(C(=O)c2sc(Cl)nc2Cl)CC12CN(C(=O)[C@H]1CC1(C)C)C2)[C@@H](C)OCC1CCCCC1 [I-232A] | 10 to 100 nM |
| CNC(=O)C(NC(=O)[C@@H]1CN(C(=O)c2cncs2)CC12CN(C(=O)[C@H]1CC1(C)C)C2)c1cccc(C2CCC(F)(F)CC2)n1 (some centres unmarked) [I-411] | 10 to 100 nM |
| C[C@@H](OCc1ccccc1)[C@H](NC(=O)C1CN(C(=O)c2cnn(Cc3ccccc3)c2)CC12CN(C(=O)[C@H]1CC1(C)C)C2)C(=O)N1CCCC(CO)C1 (some centres unmarked) [I-98] | 10 to 100 nM |
| COC(=O)[C@@H](CO)NC(=O)[C@H]1CN(C(=O)c2cnn(Cc3ccccc3)c2)CC12CN(C(=O)[C@H]1CC1(C)C)C2 [I-187B] | > 10000 nM |
| CNC(=O)[C@@H](NC(=O)[C@H]1CN(C(=O)c2ccccn2)CC12CN(C(=O)[C@H]1CC1(C)C)C2)[C@@H](C)OCc1ccccc1 [I-45B] | > 10000 nM |
| C[C@@H](OCC1CCC(F)(F)CC1)[C@H](NC(=O)[C@@H]1CN(C(=O)c2cncs2)CC12CN(C(=O)[C@H]1CC1(C)C)C2)C(=O)N1CCC(O)CC1 [I-383] | ≤ 10 nM |

| SMILES | IC50 |
| --- | --- |
| C[C@@H](OCC1CCCCC1)[C@@H](COC(F)(F)F)NC(=O)[C@@H]1CN(C(=O)c2cnn(Cc3ccccc3)c2)CC12CN(C(=O)[C@H]1CC1(C)C)C2 [I-309] | 10 to 100 nM |
| Cc1ccc(CNC(=O)[C@@H]2CN(C(=O)c3cnn(Cc4ccccc4)c3)CC23CN(C(=O)[C@H]2CC2(C)C)C3)nc1 [I-365] | 1000 to 10000 nM |
| CNC(=O)[C@@H](NC(=O)[C@@H]1CN(C(=O)c2cncs2)CC12CN(C(=O)[C@H]1CC1(C)C)C2)[C@@H](C)OCC12CCC(CC1)CC2 [I-289] | ≤ 10 nM |
| C[C@@H](OCC1(C(F)(F)F)CC1)[C@H](NC(=O)[C@H]1CN(C(=O)c2cncs2)CC12CN(C(=O)[C@H]1CC1(C)C)C2)C(=O)N1CCC(F)(F)CC1 [I-291] | 100 to 1000 nM |
| CNC(=O)[C@@H](NC(=O)[C@H]1CN(C(=O)c2scnc2C(C)(C)C)CC12CN(C(=O)[C@H]1CC1(C)C)C2)[C@@H](C)OCC1CCCCC1 [I-231B] | > 10000 nM |
| CC1(C)C[C@@H]1C(=O)N1CC2(CN(C(=O)c3cnn(Cc4ccccc4)c3)C[C@H]2C(=O)N[C@@H]2CCN(C3CC3)C2=O)C1 [I-259] | > 10000 nM |
| CNC(=O)[C@@H](NC(=O)[C@@H]1CN(C(=O)c2cnc(C)s2)CC12CN(C(=O)[C@H]1CC1(C)C)C2)[C@@H](C)OCC1CCCCC1 [I-156A] | 10 to 100 nM |
| CNC(=O)[C@@H](NC(=O)[C@H]1CN(S(=O)(=O)c2cnn(Cc3ccccc3)c2)CC12CN(C(=O)[C@H]1CC1(C)C)C2)[C@@H](C)OCc1ccccc1 [I-79B] | > 10000 nM |
| CC1(C)C[C@@H]1C(=O)N1CC2(CN(C(=O)c3cnn(Cc4ccccc4)c3)C[C@H]2C(=O)N[C@H]2CCCN(C(=O)c3ccccc3)C2)C1 [I-83A] | 1000 to 10000 nM |
| CNC(=O)[C@@H](NC(=O)[C@@H]1CN(C(=O)c2cnn(Cc3ccccc3)c2)CC12CN(C(=O)NC(C)C)C2)[C@@H](C)OCC1CCCCC1 [I-267] | 1000 to 10000 nM |
| Cc1ccc(CNC(=O)[C@@H]2CN(C(=O)c3cnn(Cc4ccccc4)c3)CC23CN(C(=O)[C@H]2CC2(C)C)C3)cc1 [I-363] | 1000 to 10000 nM |
| COC[C@H]1CCCN(C(=O)[C@@H](NC(=O)[C@@H]2CN(C(=O)c3cncs3)CC23CN(C(=O)[C@H]2CC2(C)C)C3)[C@@H](C)OC[C@H]2CC[C@H](NC(C)=O)CC2)C1 [I-434] | 100 to 1000 nM |
| CNC(=O)C(NC(=O)[C@@H]1CN(C(=O)c2cnn(Cc3ccccc3)c2)CC12CN(C(=O)[C@H]1CC1(C)C)C2)c1ccc(C)nn1 (some centres unmarked) [I-421] | 1000 to 10000 nM |
| CNC(=O)[C@@H](NC(=O)[C@@H]1CN(C(=O)c2cnc(COC)s2)CC12CN(C(=O)[C@H]1CC1(C)C)C2)[C@@H](C)OCC1CCCCC1 [I-145A] | 10 to 100 nM |
| C[C@@H](OCC1CCC(F)(F)CC1)[C@H](NC(=O)C1CN(C(=O)c2cncs2)CC12CN(C(=O)[C@H]1CC1(C)C)C2)C(=O)N1CCC(OC(F)(F)F)CC1 (some centres unmarked) [I-394] | ≤ 10 nM |
| CNC(=O)[C@@H](NC(=O)[C@H]1CN(C(=O)c2cnn(Cc3ccccc3)c2)CC12CN(C(=O)C1(C#N)CC1)C2)[C@@H](C)OCc1ccccc1 [I-73B] | > 10000 nM |
| CNC(=O)[C@@H](NC(=O)[C@H]1CN(C(=O)c2cnn(Cc3ccccc3)c2)CC12CN(C(=O)C1(C(F)(F)F)CC1)C2)[C@@H](C)OCc1ccccc1 [I-108B] | > 10000 nM |
| CNC(=O)C(NC(=O)[C@@H]1CN(C(=O)c2cnn(Cc3ccccc3)c2)CC12CN(C(=O)[C@H]1CC1(C)C)C2)c1cccc(C2CCCCC2)n1 (some centres unmarked) [I-391] | ≤ 10 nM |
| COC[C@H]1CCCN(C(=O)[C@@H](NC(=O)[C@@H]2CN(C(=O)c3cncs3)CC23CN(C(=O)[C@H]2CC2(C)C)C3)[C@@H](C)OCc2ccc(Cl)cc2F)C1 [I-317] | ≤ 10 nM |
| CNC(=O)[C@@H](CO)NC(=O)C1CN(C(=O)c2cnn(Cc3ccccc3)c2)CC12CN(C(=O)[C@H]1CC1(C)C)C2 (some centres unmarked) [I-261] | > 10000 nM |
| COC1CCN(C(=O)[C@@H](NC(=O)[C@@H]2CN(C(=O)c3sc(C)nc3C)CC23CN(C(=O)[C@H]2CC2(C)C)C3)[C@@H](C)OCC23CCC(CC2)OC3)CC1 [I-451] | 10 to 100 nM |
| Cc1ccc(CNC(=O)[C@@H]2CN(C(=O)c3cnn(Cc4ccncc4F)c3)CC23CN(C(=O)[C@H]2CC2(C)C)C3)nn1 [I-35] | > 10000 nM |
| C[C@@H](OCC12CCC(CC1)OC2)[C@H](NC(=O)[C@@H]1CN(C(=O)c2cncs2)CC12CN(C(=O)[C@H]1CC1(C)C)C2)C(=O)N1CCC2(CC1)CC2 [I-458] | ≤ 10 nM |
| C[C@@H](OCc1ccccc1)[C@H](NC(=O)[C@@H]1CN(C(=O)c2cnn(Cc3ccccc3)c2)CC12CN(C(=O)[C@H]1CC1(C)C)C2)C(=O)N1CCC(F)(F)CC1 [I-280] | ≤ 10 nM |
| CNC(=O)[C@@H](NC(=O)[C@H]1CN(C(=O)c2cn[nH]c2)CC12CN(C(=O)[C@H]1CC1(C)C)C2)[C@@H](C)OCC1CCCCC1 [I-66B] | 1000 to 10000 nM |
| C[C@@H](OCc1ccccc1)[C@H](NC(=O)C1CN(C(=O)c2cnn(Cc3ccccc3)c2)CC12CN(C(=O)[C@H]1CC1(C)C)C2)C(=O)N1CCOCC1 (some centres unmarked) [I-86] | 10 to 100 nM |
